How the values were obtained:
Test in all cases: relative viability (nuclei count vs DMSO), 5 days (fraction); higher = more cells survive
[1] = compound: Cn1cnc2c(F)c(Nc3ccc(Br)cc3Cl)c(C(=O)NOCCO)cc21 [Selumetinib] + COc1cccc2cc(-c3nc([C@H]4CC[C@H](C(=O)O)CC4)n4ncnc(N)c34)[nH]c12 [OSI-027] (partner 0.5 µM)
In short: (§1)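 Relative viability equals treated-well nuclei counts divided by vehicle-well nuclei counts. Counts came from 4× images of lung cancer cell lines grown in 1536-well plates for 5 days after pin-tool dosing on the day after seeding. Dosing used one drug alone or a fixed anchor-drug dose plus five library-drug doses (not always all listed) in √10 steps, and values are medians of duplicate plates.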

[2] = compound: CC1(C)CCC(CN2CCN(c3ccc(C(=O)NS(=O)(=O)c4ccc(NCC5CCOCC5)c([N+](=O)[O-])c4)c(Oc4cnc5[nH]ccc5c4)c3)CC2)=C(c2ccc(Cl)cc2)C1 [Venetoclax] + Nc1nc2[nH]cc(CCc3ccc(C(=O)N[C@@H](CCC(=O)O)C(=O)O)cc3)c2c(=O)[nH]1 [Pemetrexed] (partner 0.2 µM)
In short: as §1

[3] = compound: CC1(C)CCC(CN2CCN(c3ccc(C(=O)NS(=O)(=O)c4ccc(NCC5CCOCC5)c([N+](=O)[O-])c4)c(Oc4cnc5[nH]ccc5c4)c3)CC2)=C(c2ccc(Cl)cc2)C1 [Venetoclax] + C[C@@H](Oc1cc(-c2cnn(C3CCNCC3)c2)cnc1N)c1c(Cl)ccc(F)c1Cl [Crizotinib] (partner 1 µM)
In short: as §1

[4] = compound: CC1(C)CCC(CN2CCN(c3ccc(C(=O)NS(=O)(=O)c4ccc(NCC5CCOCC5)c([N+](=O)[O-])c4)c(Oc4cnc5[nH]ccc5c4)c3)CC2)=C(c2ccc(Cl)cc2)C1 [Venetoclax] + CCNC(=O)c1noc(-c2cc(C(C)C)c(O)cc2O)c1-c1ccc(CN2CCOCC2)cc1 [Luminespib] (partner 0.01 µM)
In short: as §1

| Cell Line | relative viability ([1]; first compound 0.02 µM) | relative viability ([1]; first compound 0.06325 µM) | relative viability ([1]; first compound 0.2 µM) | relative viability ([1]; first compound 0.6325 µM) | relative viability ([2]; first compound 0.01 µM) | relative viability ([2]; first compound 0.03162 µM) | relative viability ([2]; first compound 0.1 µM) | relative viability ([2]; first compound 0.3162 µM) | relative viability ([2]; first compound 1 µM) | relative viability ([3]; first compound 0.01 µM) | relative viability ([3]; first compound 0.03162 µM) | relative viability ([3]; first compound 0.1 µM) | relative viability ([3]; first compound 0.3162 µM) | relative viability ([3]; first compound 1 µM) | relative viability ([4]; first compound 0.01 µM) | relative viability ([4]; first compound 0.03162 µM) | relative viability ([4]; first compound 0.1 µM) | relative viability ([4]; first compound 0.3162 µM) | relative viability ([4]; first compound 1 µM) |
| --- | --- | --- | --- | --- | --- | --- | --- | --- | --- | --- | --- | --- | --- | --- | --- | --- | --- | --- | --- |
| NCI-H1563 | 0.721 | 0.713 | 0.779 | 0.783 | 0.847 | 0.902 | 0.798 | 0.744 | 0.888 | 0.872 | 0.878 | 0.884 | 0.996 | 0.907 | 0.548 | 0.546 | 0.499 | 0.447 | 0.577 |
| NCI-H1792 | 0.761 | 0.727 | 0.67 | 0.611 | 0.416 | 0.998 | 0.7 | 0.815 | 0.618 | 0.938 | 0.946 | 0.983 | 0.98 | 0.93 | 0.381 | 0.492 | 0.329 | 0.374 | 0.375 |
| HCC-15 | 0.522 | 0.344 | 0.256 | 0.19 | 0.24 | 0.236 | 0.217 | 0.217 | 0.201 | 0.814 | 0.839 | 0.709 | 0.742 | 0.617 | 0.479 | 0.318 | 0.308 | 0.316 | 0.181 |
| LU99A | 0.338 | 0.308 | 0.331 | 0.301 | 0.177 | 0.239 | 0.163 | 0.172 | 0.178 | 0.555 | 0.587 | 0.576 | 0.586 | 0.526 | 0.232 | 0.256 | 0.262 | 0.227 | 0.37 |
| SW 1573 | 0.515 | 0.449 | 0.464 | 0.458 | 0.784 | 0.808 | 0.784 | 0.843 | 0.846 | 0.81 | 0.808 | 0.752 | 0.823 | 0.732 | 0.234 | 0.152 | 0.153 | 0.385 | 0.215 |
| NCI-H2170 | 0.712 | 0.714 | 0.664 | 0.684 | 0.25 | 0.278 | 0.259 | 0.259 | 0.253 | 1.07 | 1.23 | 1.12 | 1.15 | 1.13 | 0.589 | 0.427 | 0.766 | 0.737 | 0.689 |
| NCI-H2087 | 0.466 | 0.434 | 0.256 | 0.177 | 0.7 | 0.65 | 0.785 | 0.707 | 0.668 | 0.931 | 0.805 | 1.11 | 1.03 | 0.863 | 0.154 | 0.138 | 0.175 | 0.18 | 0.135 |
| LCLC-103H | 0.474 | 0.425 | 0.453 | 0.44 | 0.447 | 0.432 | 0.448 | 0.43 | 0.447 | 1.05 | 1.2 | 1.04 | 0.985 | 1.05 | 0.969 | 0.999 | 0.905 | 1.02 | 0.902 |
| NCI-H1755 | 0.745 | 0.698 | 0.681 | 0.673 | 0.39 | 0.475 | 0.397 | 0.441 | 0.407 | 0.769 | 0.885 | 0.872 | 0.863 | 0.779 | 0.534 | 0.452 | 0.556 | 0.348 | 0.55 |
| NCI-H1650 | 0.677 | 0.405 | 0.637 | 0.548 | 0.343 | 0.361 | 0.405 | 0.431 | 0.356 | 0.831 | 0.986 |  | 0.74 | 0.842 | 0.196 | 0.202 | 0.2 | 0.189 | 0.207 |
| HARA | 0.481 | 0.443 | 0.327 | 0.263 | 0.216 | 0.247 |  | 0.329 | 0.284 | 0.946 | 1.07 | 0.603 | 1.04 | 1.08 | 0.814 | 0.657 | 0.751 | 0.913 | 0.823 |
| NCI-H1975 | 0.8 | 0.57 | 0.676 | 0.527 | 0.261 | 0.279 | 0.276 | 0.309 | 0.281 | 1.13 | 0.907 | 0.974 | 0.879 | 0.867 | 0.241 | 0.212 | 0.191 | 0.172 | 0.251 |
| SK-MES-1 | 0.603 | 0.598 | 0.587 | 0.447 | 0.918 | 1.08 | 0.994 | 0.956 | 0.754 | 1.01 | 1.08 | 1.05 | 1.01 | 0.843 | 0.82 | 0.789 | 0.806 | 0.822 | 0.728 |
| NCI-H1666 | 0.909 | 0.717 | 0.793 | 0.717 | 0.726 | 0.916 | 0.919 | 0.805 | 0.799 | 0.94 | 0.985 | 1.02 | 1 | 0.916 | 0.894 | 1.08 | 0.953 | 0.973 | 0.996 |
| NCI-H2228 | 0.48 | 0.512 | 0.402 | 0.374 | 0.341 | 0.331 | 0.36 | 0.272 | 0.343 | 0.432 | 0.519 | 0.538 | 0.427 | 0.544 | 0.162 | 0.158 | 0.15 | 0.128 | 0.147 |
| HCC-44 | 0.482 | 0.388 | 0.35 | 0.368 | 0.667 | 0.673 | 0.63 | 0.649 | 0.656 | 0.748 | 0.852 | 0.83 | 0.778 | 0.762 | 1.05 | 0.946 | 1.13 | 1.07 | 1 |

Source: the supplement of paper PMC10307832
